Results on three compounds are retold here after patent US6521645B2, “Methods for the treatment and prevention of urinary stone disease” (The University of Kansas Medical Center, priority 2000, dated 2003).

Read-outs that look alike come from different tables or passages of the source.

The conditions of data set [1]: cited from earlier work.
For data set [2] the following is noted: rat model of hyperoxaluria; cited from earlier work.
For data set [3] the following is noted: cited from earlier work. The source holds these as a separate data set.
The nature of data set [4]: Urinary oxalate excretion in pyridoxamine-treated rats (oxalate oxidase method). It counts as in vivo, Sprague-Dawley rats. The note with it: pyridoxamine in drinking water, 1.2 μm/day/gram body weight. The protocol:
(§1) Two month old Sprague-Dawley rats were housed individually in metabolic cages and fed standard powdered stock rations. […] To minimize possible chemical degradation of pyridoxamine, fresh solutions were prepared daily and administered in water bottles wrapped in aluminum foil.
Twenty-four hour urine samples were collected under toluene (to inhibit bacterial growth) using containers with 2 M hydrochloric acid to minimize spontaneous breakdown of urinary ascorbic acid to oxalate (21). The urine samples were stored at −70° C. until further analysis. Under these conditions, frozen urine can be stored for at least 1 month with no effect on oxalate measurements (22). Collected urine samples were analyzed to determine concentrations of oxalate using the oxalate oxidase method (23). This assay is highly specific and sensitive to about 10 μM (23). Oxalate oxidase from Barley seedlings was purchased from Sigma Co. (St. Louis, Mo.). The method is based on the conversion of oxalate to hydrogen peroxide and carbon dioxide by oxalate oxidase. […] was determined enzymatically with horseradish peroxidase by oxidative coupling of 3-methyl-2-benzothiazolinone hydrazone with N,N-dimethylaniline. The resulting colored product was determined spectrophotometrically at 595 nm. The modified sample preparation procedure was used, which replaces column chromatography with a simple precipitation step (24).

A short description of data set [5]: Body weight, behavior and water consumption of pyridoxamine-treated rats. It counts as in vivo, Sprague-Dawley rats. The protocol:
as §1

Another data set concerns the target T1, oxalate oxidase (Hordeum vulgare, UniProt P45850).
T1 construct: Oxalate oxidase from Barley seedlings was purchased from Sigma Co; purchased Sigma Co. (St. Louis, Mo.); host or cells: barley seedlings (natural source)
T1 sequence (P45850 1-201): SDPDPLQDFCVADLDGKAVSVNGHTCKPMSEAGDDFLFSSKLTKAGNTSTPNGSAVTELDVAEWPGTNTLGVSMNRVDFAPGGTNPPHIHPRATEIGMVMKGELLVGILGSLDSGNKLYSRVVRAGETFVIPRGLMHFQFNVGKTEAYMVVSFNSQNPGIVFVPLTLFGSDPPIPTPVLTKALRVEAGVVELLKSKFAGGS
Kind of data set: Interference of pyridoxamine with urinary oxalate determination by oxalate oxidase method. Set-up: species or system Barley. Particulars: pyridoxamine added to assay mixtures, final concentration 2 mg/ml.

Data set [6] can be described thus: Ethylene glycol (EG) rat model of experimental hyperoxaluria. It counts as in vivo. The note with it: rats given EG […] solution in drinking water; predicted result. The text has this: Both compounds are precursors of oxalate synthesis and their administration results in increased urinary oxalate concentration. […] The use of two different models also helps to minimize possible model-specific adverse effects. […] The results for Day-14 oxalate are known by Day 15, at which time the animals within each group (Control, EG) are pair-matched according to their Day-14 oxalate. The pyridoxamine and no-pyridoxamine groups therefore begin the pyridoxamine-treatment period with nearly identical mean and standard deviation oxalate excretion, which optimizes the sensitivity of this experimental design.

The conditions of data set [7]: diabetic rat model, 7 months, same dose; cited from earlier work.

`Cc1ncc(CO)c(CO)c1O` [pyridoxine]: the urinary oxalate levels entry in data set [1] (stone formers, 200 mg daily) is reported as “did not reduce”. Further, the “risk of kidney stone formation” value in data set [1] (women, 40 mg/day) is recorded as “reduced risk”.
On to `O=C1N[C@H](C(=O)O)CS1` [OTZ, (L)-2-oxothiazolidine-4-carboxylate], for which the urinary oxalate concentration result in data set [2] is reported as “decrease”. Moreover, the urinary oxalate levels entry in data set [3] (normal individuals) was “decreased”. In addition, in data set [3] (patients, administered for only 48 hours), the adverse effects entry is “mild to moderate adverse effects”.
Turning to `Cc1ncc(CO)c(CN)c1O.Cl.Cl` [pyridoxamine, Pyridoxamine dihydrochloride], in data set [4], the “statistical significance of the urinary oxalate difference from controls” value is “statistically different from controls after 12 days” and the “urinary oxalate levels versus controls” value is on record as “consistently lower”. In data set [5], the “general behavior versus control group” value is “no difference” and the “weight gain versus control group” value is reported as “no difference”. Further, the Weight in data set [5] (Day 1) was 315 ± 6 grams. This compound also showed a Weight in data set [5] (Day 26) of 363 ± 16 grams. The “effect on oxalate measurements” value on oxalate oxidase was “no effect”. Moreover, in data set [6], the oxalate excretion entry is given as “significantly reduce”. In addition, in data set [7], the “therapeutic effect of the dose” value is given as “had therapeutic effects”.
